In patent US7348034B2, “Plant based formulations for improving skin moisture, texture, and appearance” (Access Business Group International LLC, priority 2005, dated 2008):

Tests used:
[1] = system: Hs27 human fibroblast / HEK human keratinocyte co-cultures; assay: Pro-collagen synthesis in fibroblast/keratinocyte co-cultures (ELISA); assay type: cell-based; set-up: key: a “+” sign indicates an increase in synthesis; ++: multiple “+” signs indicating a higher increase in synthesis; +++: multiple “+” signs indicating a higher increase in synthesis; ++++: multiple “+” signs indicating a higher increase in synthesis; a “−” sign indicates decrease in synthesis; −−: multiple “−”signs indicating a higher decrease in synthesis; conditions: 10 mg/ml, overnight, pro-collagen in supernatant
Protocol: Hs27, a human fibroblast cell culture and HEK, a human keratinocyte cell culture, were established in 24 well plates. The cells were exposed to various ingredients used in formulations of the present invention at concentrations of 10 mg/ml. The co-cultures were then incubated overnight. The following day, supernatants were collected. The supernatants were analyzed for the presence of pro-collagen, a soluble precursor of collagen formed by fibroblasts in the process of collagen synthesis. Pro-collagen synthesis was assayed using commercially available ELISA kits. See […], Falabella A, Ochoa S, Zhou […]. “Dermal fibroblasts from venous ulcers are unresponsive to the action of transforming growth factor-beta 1.” J Dermatol Sci. 1997. 16(1):59-66.

[2] = system: Hs27 human fibroblast / HEK human keratinocyte co-cultures; assay: Elastin synthesis in fibroblast/keratinocyte co-cultures (Fastin Elastin kit); assay type: cell-based; set-up: key: a “+” sign indicates an increase in synthesis; ++: multiple “+” signs indicating a higher increase in synthesis; +++: multiple “+” signs indicating a higher increase in synthesis; ++++: multiple “+” signs indicating a higher increase in synthesis; a “−” sign indicates decrease in synthesis; −−: multiple “−”signs indicating a higher decrease in synthesis; conditions: 10 mg/ml, overnight, elastin in supernatant
Protocol: Hs27, a human fibroblast cell culture and HEK, a human keratinocyte cell culture, were established in 24 well plates. The cells were exposed to various ingredients of the formulations of the present invention at concentrations of 10 mg/ml. The co-cultures were then incubated overnight. The following day supernatants were collected. The supernatants were analyzed for the presence of elastin using the Fastin Elastin® kit from Biocolor. Liao […]. 2004. “Relationship between collagen fibrils, glycosaminoglycans, and stress relaxation in mitral valve chordae […].” Ann. Biomed. Eng. 32(7):977-983.

[3] = system: mouse keratinocytes; conditions: mouse keratinocytes in vitro; cited from earlier work
[4] = system: Human HEK001 cells; assay: Lipid synthesis, Oil Red O staining; assay type: cell-based; set-up: key to Lipids: a “+” sign indicates an increase in synthesis; ++: multiple “+” signs indicating a higher increase in synthesis; +++: multiple “+” signs indicating a higher increase in synthesis; ++++: multiple “+” signs indicating a higher increase in synthesis; a “−” sign indicates decrease in synthesis; −−: multiple “−”signs indicating a higher decrease in synthesis; conditions: 0.005%, overnight; for Lipids: 0.05%, and 0.5% in media, Oil Red O OD 515 nm
Protocol: Human HEK001 cells were plated at 2×10^4/well in 96 well plates and were incubated overnight. The following day, the cells were exposed to: glycine, Cherokee rose hips, grape seed extract, Wolfberry extract, Pickled Ume, Ascorbic acid, Chinese Angelica extract, royal jelly, and α-tocopherol, which were diluted into cell culture media at concentrations of 0.005%, 0.05%, and 0.5%. The cells were then again incubated overnight. The following day, the cells were fixed in 1% formaldehyde. Cellular lipids were then stained with Oil Red O® stain. See Ramirez J L, Castro-Munnozledo F, Kuri-Harusch W. 1992. “Quantitation of adipose conversion and triglycerides by staining intracytoplasmic lipids with Oil Red O.” Histochemistry. 97:493-497. Following staining, the lipid bound stain was extracted with isopropanol. The OD of the extracted stain was read at 515 nm.

[5] = daily consumption of tomato paste over ten weeks; cited from earlier work
[6] = system: humans; conditions: supplementation with high doses; cited from earlier work
[7] = molecular target: T1, MMP-1 (Homo sapiens, UniProt P03956); assay: MMP-1 enzyme activity (Amersham kit); assay type: biochemical; set-up: key: a “+” sign indicates an increase in synthesis; ++: multiple “+” signs indicating a higher increase in synthesis; +++: multiple “+” signs indicating a higher increase in synthesis; ++++: multiple “+” signs indicating a higher increase in synthesis; a “−” sign indicates decrease in synthesis; −−: multiple “−”signs indicating a higher decrease in synthesis; conditions: samples diluted to 100 μg/ml
T1 construct: purchased Amersham
T1 sequence (P03956 100-469): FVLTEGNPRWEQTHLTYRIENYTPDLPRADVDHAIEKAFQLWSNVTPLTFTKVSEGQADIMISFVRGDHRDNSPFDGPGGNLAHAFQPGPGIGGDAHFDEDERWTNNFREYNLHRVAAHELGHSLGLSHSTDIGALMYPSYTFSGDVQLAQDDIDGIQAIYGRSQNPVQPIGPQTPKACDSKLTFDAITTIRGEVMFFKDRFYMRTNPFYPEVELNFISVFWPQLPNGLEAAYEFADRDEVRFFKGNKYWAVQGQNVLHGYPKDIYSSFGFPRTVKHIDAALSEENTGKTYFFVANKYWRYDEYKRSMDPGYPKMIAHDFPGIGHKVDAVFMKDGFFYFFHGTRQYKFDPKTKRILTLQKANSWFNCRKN
From the text: (§1) Commercially available kits were used for testing the effect of various ingredients used in the formulations of the present invention on the activity of the MMP-1, MMP-9, and elastase. Gould L J, Yager D R, McGeehan G M, Diegelmann R F. 1999. “Method to analyze collagenase and gelatinase activity by fibroblasts in culture.” In Vitro Cell. Dev. Biol. Anim. 35(2):75-79. For MMP-1, a kit from Amersham® was used according to the manufacturer's specifications. For MMP-9 and Elastase, kits from Molecular Probes® were used. The samples were prepared in stock solvent at stock concentrations of 100 mg/ml. The samples were diluted to 100 μg/ml using PBS.

[8] = system: MMP-9; assay: MMP-9 enzyme activity (Molecular Probes kit); assay type: biochemical; set-up: key: a “+” sign indicates an increase in synthesis; ++: multiple “+” signs indicating a higher increase in synthesis; +++: multiple “+” signs indicating a higher increase in synthesis; ++++: multiple “+” signs indicating a higher increase in synthesis; a “−” sign indicates decrease in synthesis; −−: multiple “−”signs indicating a higher decrease in synthesis; conditions: samples diluted to 100 μg/ml
From the text: as §1

[9] = molecular target: T2, Elastase (Sus scrofa, UniProt P00772); assay: Elastase enzyme activity (Molecular Probes kit); assay type: biochemical; set-up: key: a “+” sign indicates an increase in synthesis; ++: multiple “+” signs indicating a higher increase in synthesis; +++: multiple “+” signs indicating a higher increase in synthesis; ++++: multiple “+” signs indicating a higher increase in synthesis; a “−” sign indicates decrease in synthesis; −−: multiple “−”signs indicating a higher decrease in synthesis; conditions: samples diluted to 100 μg/ml
T2 construct: purchased Molecular Probes
T2 sequence (P00772 27-266): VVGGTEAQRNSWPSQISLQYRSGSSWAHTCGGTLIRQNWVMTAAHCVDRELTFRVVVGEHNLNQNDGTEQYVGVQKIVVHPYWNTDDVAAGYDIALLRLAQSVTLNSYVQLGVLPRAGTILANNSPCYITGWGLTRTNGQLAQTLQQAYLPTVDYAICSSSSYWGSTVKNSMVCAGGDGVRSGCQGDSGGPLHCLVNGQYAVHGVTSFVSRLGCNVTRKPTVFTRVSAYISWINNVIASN
From the text: as §1

For `O=C1O[C@H]([C@@H](O)CO)C(O)=C1O` [Ascorbic acid], which Collagen [1] is on record?
Its Collagen is “++++”.

And the Elastin [2]?
Its Elastin is “+”.

What about the UVB-induced oxidative damage [3] of the same compound?
Its UVB-induced oxidative damage is “shown to reduce UVB-induced oxidative damage in mouse”.

And the Lipids [4]?
The Lipids was “−”.

Which results are given for `NCC(=O)O` [Glycine]?
Collagen [1]: +; Elastin [2]: −; Lipids [4]: −

With `CC(C)=CCC/C(C)=C/C=C/C(C)=C/C=C/C(C)=C/C=C/C=C(C)/C=C/C=C(C)/C=C/C=C(\C)CCC=C(C)C` [Lycopene] as the compound, how does the “protection against erythema formation following UV-irradiation” value [5] read?
Its value is “a period of ten weeks provides protection against erythema formation”.

For `CC1=C(/C=C/C(C)=C/C=C/C(C)=C/C=C/C=C(C)/C=C/C=C(C)/C=C/C2=C(C)CCCC2(C)C)C(C)(C)CCC1` [beta-carotene], which “protection against UV-induced erythema” value [6] is on record?
Its value is “with high doses of beta-carotene protects against UV-induced”.

Which MMP-1 [7] does the source give for `Cc1c(C)c2c(c(C)c1O)CC[C@@](C)(CCC[C@H](C)CCC[C@H](C)CCCC(C)C)O2` [α-tocopherol] here?
Its MMP-1 is “−”.

What about the MMP-9 [8] of the same compound?
The MMP-9 was “−”.

And the Collagen [1]?
Its Collagen is “−”.

What about the Elastase [9] of the same compound?
The Elastase was “−”.

What about the Elastin [2] of the same compound?
The Elastin was “−”.

What about the Lipids [4] of the same compound?
The Lipids was “+”.

What about the “induction of lipid synthesis” value ([4]; 0.05%, and 0.5%, Oil Red O) of the same compound?
The value was “demonstrated the ability to induce lipid synthesis”.
